According to ChEMBL document CHEMBL1201862, “PubChem BioAssay data set” (2004):
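Each compound was tested at five concentrations against cells in 96-well plates for 48 hours. GI50 = concentration required for 50% inhibition of growth.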 Active and inactive are the calls of the source. Rule as the data show it: active = GI50 up to about 1.1 µM and inactive = higher.

Legend:
Experiment in all cases: NCI tumour cell line growth inhibition, 48 h
HCC 2998 = tested on: HCC 2998
HL-60 = tested on: HL-60
UO-31 = tested on: UO-31
DMS-114 = tested on: DMS-114
OVCAR-8 = tested on: OVCAR-8
IGROV-1 = tested on: IGROV-1
OVCAR-4 = tested on: OVCAR-4
KM-20L2 = tested on: KM-20L2
CCRF-CEM = tested on: CCRF-CEM
U-251 = tested on: U-251
SK-MEL-2 = tested on: SK-MEL-2
NCI-H522 = tested on: NCI-H522
OVCAR-3 = tested on: OVCAR-3
SNB-78 = tested on: SNB-78
SN12C = tested on: SN12C
UACC-257 = tested on: UACC-257
SNB-75 = tested on: SNB-75
NCI-H226 = tested on: NCI-H226
HOP-92 = tested on: HOP-92
SW-620 = tested on: SW-620
LOX IMVI = tested on: LOX IMVI
DLD-1 = tested on: DLD-1
HCT-15 = tested on: HCT-15
SR = tested on: SR
HOP-62 = tested on: HOP-62
HT-29 = tested on: HT-29
RPMI-8226 = tested on: RPMI-8226
M14 = tested on: M14
SNB-19 = tested on: SNB-19
CAKI-1 = tested on: CAKI-1
SK-OV-3 = tested on: SK-OV-3
SK-MEL-5 = tested on: SK-MEL-5
TK-10 = tested on: TK-10
LXFL 529 = tested on: LXFL 529
786-0 = tested on: 786-0
DMS-273 = tested on: DMS-273
Malme-3M = tested on: Malme-3M
COLO 205 = tested on: COLO 205
SK-MEL-28 = tested on: SK-MEL-28
SF-539 = tested on: SF-539
K562 = tested on: K562
KM12 = tested on: KM12
NCI-H23 = tested on: NCI-H23
HCT-116 = tested on: HCT-116
SF-295 = tested on: SF-295
ACHN = tested on: ACHN
OVCAR-5 = tested on: OVCAR-5
SF-268 = tested on: SF-268
XF498 = tested on: XF498
EKVX = tested on: EKVX
UACC-62 = tested on: UACC-62
M19-MEL = tested on: M19-MEL
NCI-H460 = tested on: NCI-H460
A549 = tested on: A549
A498 = tested on: A498
RXF 393 = tested on: RXF 393
MOLT-4 = tested on: MOLT-4

Cc1cc(C)[n+](CCOc2ccc(/C(=C(/Cl)c3ccccc3)c3ccccc3)cc2)c(C)c1.[O-][Cl+3]([O-])([O-])[O-]
GI50 (HCC 2998): 0.701 µM (active)
GI50 (HL-60): 0.215 µM (active)
GI50 (UO-31): 14.8 µM (inactive)
GI50 (DMS-114): 1.29 µM (inactive)
GI50 (OVCAR-8): 1.33 µM (inactive)
GI50 (IGROV-1): 0.612 µM (active)
GI50 (OVCAR-4): 0.944 µM (active)
GI50 (KM-20L2): 0.847 µM (active)
GI50 (CCRF-CEM): 0.521 µM (active)
GI50 (U-251): 0.685 µM (active)
GI50 (SK-MEL-2): 0.865 µM (active)
GI50 (NCI-H522): 0.39 µM (active)
GI50 (OVCAR-3): 0.659 µM (active)
GI50 (SNB-78): 2 µM (inactive)
GI50 (SN12C): 0.774 µM (active)
GI50 (UACC-257): 0.692 µM (active)
GI50 (SNB-75): 0.697 µM (active)
GI50 (NCI-H226): 1.32 µM (inactive)
GI50 (HOP-92): 0.989 µM (active)
GI50 (SW-620): 0.891 µM (active)
GI50 (LOX IMVI): 0.778 µM (active)
GI50 (DLD-1): 3.47 µM (inactive)
GI50 (HCT-15): 13.4 µM
GI50 (SR): 0.804 µM (active)
GI50 (HOP-62): 2.37 µM (inactive)
GI50 (HT-29): 0.809 µM (active)
GI50 (RPMI-8226): 0.348 µM (active)
GI50 (M14): 2 µM (inactive)
GI50 (SNB-19): 0.865 µM (active)
GI50 (CAKI-1): 4.49 µM (inactive)
GI50 (SK-OV-3): 1.25 µM (inactive)
GI50 (SK-MEL-5): 0.455 µM (active)
GI50 (TK-10): 3.52 µM (inactive)
GI50 (LXFL 529): 0.506 µM (active)
GI50 (786-0): 2.45 µM (inactive)
GI50 (DMS-273): 0.366 µM (active)
GI50 (Malme-3M): 1.4 µM (inactive)
GI50 (COLO 205): 0.292 µM (active)
GI50 (SK-MEL-28): 1.32 µM (inactive)
GI50 (SF-539): 1.8 µM (inactive)
GI50 (K562): 0.257 µM (active)
GI50 (KM12): 0.697 µM (active)
GI50 (NCI-H23): 0.869 µM (active)
GI50 (HCT-116): 0.743 µM (active)
GI50 (SF-295): 2.47 µM (inactive)
GI50 (ACHN): 10 µM (inactive)
GI50 (OVCAR-5): 2.69 µM (inactive)
GI50 (SF-268): 0.933 µM (active)
GI50 (XF498): 0.256 µM (active)
GI50 (EKVX): 0.887 µM (active)
GI50 (UACC-62): 0.741 µM (active)
GI50 (M19-MEL): 0.495 µM (active)
GI50 (NCI-H460): 1.25 µM (inactive)
GI50 (A549): 1.55 µM (inactive)
GI50 (A498): 3.87 µM (inactive)
GI50 (RXF 393): 2.49 µM (inactive)
GI50 (MOLT-4): 1.28 µM (inactive)

CC(=O)OCC1OC(N2C(=O)[C@@H](Oc3ccccc3)[C@H]2/C=C/c2ccccc2)C(OC(C)=O)C(OC(C)=O)C1OC(C)=O (some centres not stated)
GI50 (HCC 2998): > 100 µM (inactive)
GI50 (HL-60): > 100 µM (inactive)
GI50 (UO-31): > 100 µM (inactive)
GI50 (DMS-114): > 100 µM (inactive)
GI50 (OVCAR-8): > 100 µM (inactive)
GI50 (IGROV-1): > 100 µM (inactive)
GI50 (OVCAR-4): > 100 µM (inactive)
GI50 (KM-20L2): > 100 µM (inactive)
GI50 (CCRF-CEM): > 100 µM (inactive)
GI50 (U-251): 58.9 µM (inactive)
GI50 (SK-MEL-2): > 100 µM (inactive)
GI50 (NCI-H522): > 100 µM (inactive)
GI50 (OVCAR-3): > 100 µM (inactive)
GI50 (SNB-78): > 100 µM (inactive)
GI50 (SN12C): > 100 µM (inactive)
GI50 (UACC-257): > 100 µM (inactive)
GI50 (SNB-75): 31.1 µM (inactive)
GI50 (NCI-H226): > 100 µM (inactive)
GI50 (HOP-92): 44.5 µM (inactive)
GI50 (SW-620): > 100 µM (inactive)
GI50 (LOX IMVI): > 100 µM (inactive)
GI50 (DLD-1): > 100 µM (inactive)
GI50 (HCT-15): > 100 µM
GI50 (SR): > 100 µM (inactive)
GI50 (HOP-62): 40.1 µM (inactive)
GI50 (HT-29): > 100 µM (inactive)
GI50 (RPMI-8226): > 100 µM (inactive)
GI50 (M14): > 100 µM (inactive)
GI50 (SNB-19): 31.6 µM (inactive)
GI50 (SK-OV-3): > 100 µM (inactive)
GI50 (SK-MEL-5): > 100 µM (inactive)
GI50 (TK-10): > 100 µM (inactive)
GI50 (LXFL 529): > 100 µM (inactive)
GI50 (786-0): > 100 µM (inactive)
GI50 (DMS-273): > 100 µM (inactive)
GI50 (Malme-3M): > 100 µM (inactive)
GI50 (COLO 205): > 100 µM (inactive)
GI50 (SK-MEL-28): > 100 µM (inactive)
GI50 (SF-539): > 100 µM (inactive)
GI50 (K562): > 100 µM (inactive)
GI50 (NCI-H23): > 100 µM (inactive)
GI50 (HCT-116): > 100 µM (inactive)
GI50 (SF-295): 53.6 µM (inactive)
GI50 (ACHN): > 100 µM (inactive)
GI50 (OVCAR-5): > 100 µM (inactive)
GI50 (SF-268): 72.4 µM (inactive)
GI50 (XF498): > 100 µM (inactive)
GI50 (EKVX): > 100 µM (inactive)
GI50 (UACC-62): > 100 µM (inactive)
GI50 (M19-MEL): > 100 µM (inactive)
GI50 (NCI-H460): > 100 µM (inactive)
GI50 (A549): > 100 µM (inactive)
GI50 (A498): 72.4 µM (inactive)
GI50 (RXF 393): > 100 µM (inactive)
GI50 (MOLT-4): > 100 µM (inactive)
